Consider 42 compounds from patent US6620828B2, “Thiazole compounds and pharmaceutical compositions for inhibiting protein kinases and methods for their use” (Agouron Pharmaceuticals, Inc., priority 1999, dated 2003).

The assay deals with human umbilical vein endothelial cells (HUVEC). The assay can be described thus: HUVEC proliferation assay. Format: cell-based. The following applies: for inhibition at 0.05 µM / inhibition at 0.15 µM / inhibition at 0.001 µM / inhibition at 0.01 µM: Homo sapiens, HUVEC; for inhibition at 0.05 µM: 50 nM; for inhibition at 0.001 µM: 1 nM; for inhibition at 0.01 µM: 10 nM. The method in brief: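 Exponentially growing HUVEC were serum-starved 24 h (F12K + 1% FBS), pre-treated 1 h with compound (0.1% DMSO final), then stimulated with 6 ng/ml VEGF. Proliferation was read 72 h later by MTT reduction (A595). IC50 came from seven 0.5-log concentrations in triplicate; screens gave % inhibition relative to VEGF-only and starved wells.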

Where [1] appears, read: Inhibition of HUVEC Proliferation, crude combinatorial urea library, read-out: % inhibition @ 50 nM.
The mark [2] stands for this setting: Table I screening results, 150 nM, crude combinatorial amide library.
[3] abbreviates: Inhibition of HUVEC Proliferation, crude combinatorial urea library, read-out: Inhibition @ 50 nM.
Where [4] appears, read: Table II screening results, crude combinatorial amide library.
[5] abbreviates: Table II screening results, crude combinatorial amide library, read-out: % inhibition @ 10 nM.
Where [6] appears, read: crude combinatorial urea library, read-out: Inhibition of HUVEC Proliferation % inhibition @ 10 nM.
Where [7] appears, read: crude combinatorial urea library, read-out: Inhibition of HUVEC Proliferation % inhibition @ 50 nM.
Setting [8] is: table following Table II (untitled), crude combinatorial library.
Where [9] appears, read: table following Table II (untitled), crude combinatorial library, read-out: % inhibition @ 10 nM.

Like-named read-outs stand apart in the source and are kept apart here.

For `COCC(C)NC(=O)Nc1nc(N)c(-c2nc(-c3cc(NC(=O)c4cccc(OC)c4)c(F)cc3F)cs2)s1` (centres unmarked) [drawing 704], the inhibition at 0.05 µM under setting [1] stood at 93%. With `COc1cccc(C(=O)Nc2cc(-c3csc(-c4sc(NC(=O)NCC5CCCO5)nc4N)n3)c(F)cc2F)c1` (centres unmarked), the inhibition at 0.05 µM under setting [1] was 92%. Take `COc1cc(OC)cc(C(=O)Nc2cccc(-c3csc(-c4sc(Nc5cc(OC)c(OC)c(OC)c5)nc4N)n3)c2)c1`: the inhibition at 0.15 µM under setting [2] is 51%. For the compound `COc1cc(Nc2nc(N)c(-c3nc(-c4cccc(NC(=O)c5cnc(Cl)c(Cl)c5)c4)cs3)s2)cc(OC)c1OC`, the inhibition at 0.15 µM under setting [2] came to 20%. Turning to `COc1ccc(C(=O)Nc2cccc(-c3csc(-c4sc(Nc5cc(OC)c(OC)c(OC)c5)nc4N)n3)c2)cc1F`, under setting [2], the inhibition at 0.15 µM was 51%.

For the compound `COc1cccc(C(=O)Nc2cc(-c3noc(-c4sc(NC(=O)NCC5CCCO5)nc4N)n3)c(F)cc2F)c1` (centres unmarked) [drawing 762], the inhibition at 0.05 µM under setting [3] was determined as 107%. For the compound `COc1cccc(C(=O)Nc2cc(-c3noc(-c4sc(NC(=O)NCS(=O)(=O)O)nc4N)n3)c(F)cc2F)c1`, under setting [3], the inhibition at 0.05 µM is 30%. Regarding `COc1cc(Nc2nc(N)c(-c3nc(-c4cccc(NC(=O)c5cccc(C(=O)c6ccccc6)c5)c4)cs3)s2)cc(OC)c1OC`, the inhibition at 0.15 µM under setting [2] is -18%. Take `COc1cccc(C(=O)Nc2cc(-c3csc(-c4sc(NC(=O)NCCC(N)=O)nc4N)n3)c(F)cc2F)c1`: the inhibition at 0.05 µM under setting [1] came to 48%. As to `CNC(=O)Nc1nc(N)c(-c2nc(-c3cccc(NC(=O)C(=O)C4=CCCCC4)c3)cs2)s1`, the inhibition at 0.001 µM under setting [4] was determined as 17%. In addition, the inhibition at 0.01 µM under setting [5] came to 19%. `COc1cc(Nc2nc(N)c(-c3nc(-c4cccc(NC(=O)CCc5nc6ccccc6[nH]5)c4)cs3)s2)cc(OC)c1OC`: the inhibition at 0.15 µM under setting [2] was 27%. Take `COc1cccc(C(=O)Nc2cccc(-c3csc(-c4sc(NC(=O)NCCN5CCNC5=O)nc4N)n3)c2)c1`: the inhibition at 0.01 µM under setting [6] worked out at 0%. Also, the inhibition at 0.05 µM under setting [7] stood at 35%. Take `COc1cccc(C(=O)Nc2cc(-c3noc(-c4sc(NC(=O)NCCCN5CCCCC5)nc4N)n3)c(F)cc2F)c1`: the inhibition at 0.05 µM under setting [3] is -20%.

As to `COc1cc(Nc2nc(N)c(-c3nc(-c4cccc(NC(=O)C5C[C@@H]6C=C[C@H]5C6)c4)cs3)s2)cc(OC)c1OC` (some centres unmarked), the inhibition at 0.15 µM under setting [2] stood at 37%.

Take `COc1cccc(C(=O)Nc2cc(-c3noc(-c4sc(NC(=O)NCCc5ccncc5)nc4N)n3)c(F)cc2F)c1`: the inhibition at 0.05 µM under setting [3] worked out at 99%. As to `COc1cc(Nc2nc(N)c(-c3nc(-c4cc(NC(=O)C5CCCO5)ccc4C)no3)s2)cc(OC)c1OC` (centres unmarked), the inhibition at 0.001 µM under setting [8] turned out to be 7%. Further, the inhibition at 0.01 µM under setting [9] was determined as 21%. On to `COc1cccc(C(=O)Nc2cccc(-c3csc(-c4sc(NC(=O)NCCC(C)C)nc4N)n3)c2)c1`, for which the inhibition at 0.01 µM under setting [6] was 25%. Further, the inhibition at 0.05 µM under setting [7] was 18%. Consider `COc1cccc(C(=O)Nc2cccc(-c3csc(-c4sc(NC(=O)N[C@@H](CO)C(N)=O)nc4N)n3)c2)c1`, for which the inhibition at 0.01 µM under setting [6] is 5%. Moreover, the inhibition at 0.05 µM under setting [7] worked out at 24%.

For the compound `CCN1CCCC1CNC(=O)Nc1nc(N)c(-c2nc(-c3cccc(NC(=O)c4cccc(OC)c4)c3)cs2)s1` (centres unmarked), under setting [6], the inhibition at 0.01 µM is -29%. Besides, the inhibition at 0.05 µM under setting [7] came out at 108%. On to `COc1cc(Nc2nc(N)c(-c3nc(-c4cccc(NC(=O)C5C6CC7C(C6=O)C75)c4)cs3)s2)cc(OC)c1OC` (centres unmarked), for which the inhibition at 0.15 µM under setting [2] was -6%. Consider `COc1cc(Nc2nc(N)c(-c3nc(-c4cccc(NC(=O)Cc5ccc(Cl)c(Cl)c5)c4)cs3)s2)cc(OC)c1OC`, for which, under setting [2], the inhibition at 0.15 µM is -5%. Turning to `COc1cccc(C(=O)Nc2cc(-c3noc(-c4sc(NC(=O)NCCCN(C)c5ccccc5)nc4N)n3)c(F)cc2F)c1`, the inhibition at 0.05 µM under setting [3] came to 84%. With `COc1cccc(C(=O)Nc2cc(-c3noc(-c4sc(NC(=O)NCP(=O)(O)O)nc4N)n3)c(F)cc2F)c1`, the inhibition at 0.05 µM under setting [3] was 4%. `COc1cc(Nc2nc(N)c(-c3nc(-c4cc(NC(=O)C[C@@H]5OC(C)(C)OC5=O)ccc4C)no3)s2)cc(OC)c1OC`: the inhibition at 0.001 µM under setting [8] is -2%. Further, the inhibition at 0.01 µM under setting [9] was determined as 3%. As to `COc1cccc(/C=C/C(=O)Nc2ccc(C)c(-c3noc(-c4sc(Nc5cc(OC)c(OC)c(OC)c5)nc4N)n3)c2)c1`, the inhibition at 0.001 µM under setting [8] was -5%. Further, the inhibition at 0.01 µM under setting [9] was determined as 40%.

`COc1cc(Nc2nc(N)c(-c3nc(-c4cccc(NC(=O)CC(c5ccccc5)c5ccccc5)c4)cs3)s2)cc(OC)c1OC`: the inhibition at 0.15 µM under setting [2] turned out to be 10%. `COc1cc(Nc2nc(N)c(-c3nc(-c4cccc(NC(=O)c5ccc(C(=O)c6ccccc6)cc5)c4)cs3)s2)cc(OC)c1OC`: under setting [2], the inhibition at 0.15 µM was determined as 7%. On to `COc1cc(Nc2nc(N)c(-c3nc(-c4cc(NC(=O)Cc5cc(F)ccc5F)ccc4C)no3)s2)cc(OC)c1OC`, for which the inhibition at 0.001 µM under setting [8] was -7%. Moreover, the inhibition at 0.01 µM under setting [9] turned out to be 59%. Regarding `COc1cc(Nc2nc(N)c(-c3nc(-c4cc(NC(=O)CC(C)(C)NC(C)=O)ccc4C)no3)s2)cc(OC)c1OC`, the inhibition at 0.001 µM under setting [8] worked out at 2%. In addition, under setting [9], the inhibition at 0.01 µM is -11%.

On to `CCC(C(=O)Nc1cccc(-c2csc(-c3sc(NC(=O)NC)nc3N)n2)c1)c1ccccc1C` (centres unmarked), for which, under setting [4], the inhibition at 0.001 µM was -8%. For the same compound, the inhibition at 0.01 µM under setting [5] is 9%.

Regarding `CNC(=O)Nc1nc(N)c(-c2nc(-c3cccc(NC(=O)Cc4sc(S)nc4C)c3)cs2)s1`, the inhibition at 0.001 µM under setting [4] came to 18%. In addition, the inhibition at 0.01 µM under setting [5] was -25%. `COc1cccc(C(=O)Nc2cc(-c3noc(-c4sc(NC(=O)NCC#N)nc4N)n3)c(F)cc2F)c1`: under setting [3], the inhibition at 0.05 µM was 12%. As for `COc1cc(Nc2nc(N)c(-c3nc(-c4cc(NC(=O)c5cccc6[nH]ccc56)ccc4C)no3)s2)cc(OC)c1OC`, the inhibition at 0.001 µM under setting [8] stood at 13%. Under setting [9], the inhibition at 0.01 µM is 72%. With `COc1cc(Nc2nc(N)c(-c3nc(-c4cccc(NC(=O)/C=C/c5ccccc5F)c4)cs3)s2)cc(OC)c1OC`, the “% inhibition @ 150 nM” value under setting [2] was found to be 0%. On to `COc1cccc(C(=O)Nc2cc(-c3noc(-c4sc(NC(=O)NCCCC(=O)O)nc4N)n3)c(F)cc2F)c1`, for which the inhibition at 0.05 µM under setting [3] turned out to be 96%.

As for `COc1cccc(C(=O)Nc2cc(-c3csc(-c4sc(NC(=O)NCCCN5CCCCC5C)nc4N)n3)c(F)cc2F)c1` (centres unmarked), the inhibition at 0.05 µM under setting [1] came to 86%. On to `COc1cc(Nc2nc(N)c(-c3nc(-c4cc(NC(=O)c5ccc(C(C)(C)C)o5)ccc4C)no3)s2)cc(OC)c1OC`, for which the inhibition at 0.001 µM under setting [8] was -9%. The inhibition at 0.01 µM under setting [9] turned out to be 48%. For the compound `COc1cccc(C(=O)Nc2cc(-c3csc(-c4sc(NC(=O)NCCCCCCN(C)C)nc4N)n3)c(F)cc2F)c1`, the inhibition at 0.05 µM under setting [1] amounted to 83%.

`COc1cc(Nc2nc(N)c(-c3nc(-c4cc(NC(=O)/C=C/C5CC[C@H]6C=C[C@@H]5C6)ccc4C)no3)s2)cc(OC)c1OC` (some centres unmarked): the inhibition at 0.001 µM under setting [8] is -12%. Further, the inhibition at 0.01 µM under setting [9] came to 25%. As to `CNC(=O)Nc1nc(N)c(-c2nc(-c3cccc(NC(=O)C4CCOC4)c3)cs2)s1` (centres unmarked), the inhibition at 0.001 µM under setting [4] is -5%. Also, the inhibition at 0.01 µM under setting [5] was -8%.

Regarding `CCc1ccccc1C(=O)Nc1ccc(C)c(-c2noc(-c3sc(Nc4cc(OC)c(OC)c(OC)c4)nc3N)n2)c1`, under setting [8], the inhibition at 0.001 µM was -26%. The inhibition at 0.01 µM under setting [9] amounted to 59%. Regarding `COc1cc(Nc2nc(N)c(-c3nc(-c4cccc(NC(=O)c5csc(-c6cccnc6)n5)c4)cs3)s2)cc(OC)c1OC`, the inhibition at 0.15 µM under setting [2] was determined as 38%.
